Experiments:
[1] = tested on: isolated working rat heart; conditions: isolated working rat heart model; cited from earlier work
polycystic cpk mice = conditions: cited from earlier work
human ADPKD cells = assay: Promega Cell titer 96 MTT proliferation assay on human ADPKD cells; type: cell-based
Description: In this experiment, the effect of concentrations from […] to 10^−6 M of the known PTBR agonist, Ro5-4864 on the rate of proliferation of human autosomal dominant polycystic kidnay disease (ADPKD) cells was examined.
Epithelial cells from human ADPKD kidneys have been cultured from the domes of cysts and maintained in primary culture through several passages.
The rate of cell proliferation was determined using the Promega Cell titer 96 MTT Assay method. This assay is a modification of that described by Mosmann T 1983 J Immunol Meth. 65, 55. […] The relation between cell number and O.D. was linear, and r^2 was >0.98. To determine the effect of agonists on the rate of proliferation, approximately 4000 cells were seeded into individual chambers of a 96-well plate. The cells were incubated initially in DME/F12 medium supplemented only with penicillin, streptomycin, ITS and 1% FBS. After 24 hours,.the FBS was reduced to 0.002% (ITS deleted) to arrest growth. This small amount of serum was needed to potentiate cell attachment to the plastic surface. The human ADPKD cells were then cultured for 48 hours, after adding the cAMP (a stimulator of cell proliferation) at a concentration of 100 μM. A control and forskolin group were examined as well. Preliminary studies determined that growth was sustained over this entire interval.
Thereafter the effect of a range of concentrations from 10^−12 to 10^−6 M of the known PTBR agonist, Ro5-4864 on the rate of proliferation of […] pretreated with cAMP or not treated (baseline proliferation) was examined. The results are graphically illustrated in FIG. 6. Each data set shown in FIG. 6 is mean, and was obtained from six determinations. Accordingly, the results are highly statistically significant.

human atrial strips = conditions: not antagonized by PK 11195; cited from earlier work
Langendorf rat heart = conditions: cited from earlier work
[2] = tested on: guinea pig heart preparation; conditions: Ro5-4864 effects reversed by PK 11195; cited from earlier work

CCC(C)N(C)C(=O)c1cc2ccccc2c(-c2ccccc2Cl)n1 (centres unmarked) [PK 11195, 1-(2-chlorophenyl)-N-methyl-N-(1-methylpropyl)-3-isoquinoline carboxamide]
cardiac function [1]: depress cardiac function

CC(=O)O[C@H]1C(=O)[C@@]2(C)[C@H]([C@H](OC(=O)c3ccccc3)[C@]3(O)C[C@H](OC(=O)[C@H](O)[C@@H](NC(=O)c4ccccc4)c4ccccc4)C(C)=C1C3(C)C)[C@]1(OC(C)=O)CO[C@@H]1C[C@@H]2O [taxol]
progression of PKD (polycystic cpk mice): inhibit the progression of PKD
survival (polycystic cpk mice): prolongs the survival

CN1C(=O)CN=C(c2ccc(Cl)cc2)c2cc(Cl)ccc21 [Ro5-4864]
visual observation of the cells: growth arrest versus cell killing (human ADPKD cells; human ADPKD cells): arresting cell growth and not be killing the cells
basal cell proliferation (human ADPKD cells; human ADPKD cells not treated with cAMP (baseline), all concentrations examined, 10^-12 to 10^-6 M, MTT O.D., six determinations): blocked
cAMP stimulated cell proliferation (human ADPKD cells; human ADPKD cells pretreated with 100 μM cAMP, all concentrations examined, 10^-12 to 10^-6 M, MTT O.D., six determinations): blocked
depressant effect on the contraction amplitude (negative inotropic effect) (human atrial strips): 20%
cardiac function [1]: depress cardiac function
heart rate and left ventricular contractility (Langendorf rat heart; isolated perfused Langendorf rat heart): without affecting
coronary flow (Langendorf rat heart; isolated perfused Langendorf rat heart, effect not antagonized by PK 11195): increase coronary flow
duration of intracellular action potential and contractility [2]: decreased

CN1C(=O)CN=C(c2ccccc2)c2cc(Cl)ccc21 [diazepam]
contractile force (Langendorf rat heart; Langendorf rat heart): increased contractile force
duration of intracellular action potential and contractility [2]: less effective

O=C1CN=C(c2ccccc2Cl)c2cc([N+](=O)[O-])ccc2N1 [clonazepam]
duration of intracellular action potential and contractility [2]: ineffective

From patent publication US6380183B1, “Treatment of diseases involving cyst formation” (Scios, Inc., priority 1998, dated 2002)
